Measurements from patent US8530452B2, “Tricyclic boron compounds for antimicrobial therapy” (Micurx Pharmaceuticals, Inc., priority 2011, dated 2013).
Like-named read-outs stand apart in the source and are kept apart here.

Key:
P. aeruginosa [1] = experiment: MIC determination, antibacterial activity in vitro; assay type: cell-based, Pseudomonas aeruginosa; conditions: for MIC: Pseudomonas aeruginosa, read-out: MIC against P. aeruginosa; for reduced potency / loss of activity vs. P. aeruginosa compared to Example 7: MIC ratio vs Example 7
From the text: (§1) The in vitro activity of compounds provided herein may be assessed by standard testing procedures such as the determination of minimum inhibitory concentration (MIC) as described in Approved Standard. Methods for Dilution Antimicrobial Susceptibility Tests for Bacteria that Grow Aerobically, 3rd ed., 1993, published by the National Committee for Clinical Laboratory standards, Villanova, Pa., USA. Low MIC values indicate high antibacterial activity, while high MIC values reveal a reduced antibacterial activity (with higher drug concentration required for pathogen eradication in the latter instance).

[2] = rat PK model of intravenous administration; assay type: in vivo; conditions: for AUC: in vivo
From the text: To further elucidate therapeutic potential of drug compounds, pharmacokinetic (PK) data is used to establish the key parameters predictive of the therapy outcome, such as area under the curve (AUC) for a plot monitoring the change in the systemic drug concentration over time. Thus, a higher AUC value indicates a greater exposure to the drug, commonly associated with a greater therapeutic potential due to a higher amount of drug available to combat the infection in a mammal. In contrast, a lower AUC value indicates a reduced exposure to the drug under study, resulting in a reduced amount of antibiotic available to combat bacterial infestations. To that end, the compounds provided herein have been tested in the rat PK model of intravenous administration performed analogously to methods described in the monograph Current Protocols in Pharmacology, 2005, 7.1.1-7.1.26, John Wiley & Sons, Inc.

P. aeruginosa [3] = experiment: P. aeruginosa neutropenic mouse thigh infection model; assay type: in vivo; conditions: for reduction in the bacterial colony-forming units (CFU) / reduction in the bacterial colony-forming units (CFU), fold: 30 mg/kg; for CFU reduction / CFU reduction, fold: side-by-side test Example 1 vs Example 10, dose not given
Protocol: To establish the efficacy of the compounds provided herein in vivo, testing in a P. aeruginosa neutropenic mouse thigh infection model was performed with subcutaneous administration of test compounds analogously to the method described by Andes et al. in Antimicrobial Agents and Chemotherapy, 2002, 46(11), 3484-3489. In this model, a greater reduction in the bacterial colony-forming units (CFU) indicates more beneficial therapeutic effect (more bacterial eradication), while a lower CFU reduction indicates a lower effect (less bacterial eradication). The in vivo antibacterial effect is also referred to as efficacy, in contrast to the term potency commonly used for in vitro activity (expressed as MIC).

K. pneumoniae = experiment: MIC determination, antibacterial activity in vitro; assay type: cell-based, Klebsiela pneumoniae; conditions: for MIC: Klebsiella pneumoniae, Strain K. pneumoniae KPN1004, read-out: MIC, K. pneumoniae (footnote c)
From the text: as §1

E. coli = experiment: MIC determination, antibacterial activity in vitro; assay type: cell-based, Escherichia coli; conditions: MIC ratio vs Example 24
From the text: as §1

Gram-negative pathogens = experiment: Antibacterial activity against Gram-negative pathogens in vitro (overall statements); assay type: cell-based; conditions: Table 1 pathogens overall
From the text: as §1

A. baumannii = experiment: MIC determination, antibacterial activity in vitro; assay type: cell-based, Acinetobacter baumannii; conditions: for MIC: Acinetobacter baumannii, Strain A. baumannii MABA0001, read-out: MIC, A. baumannii (footnote b); for reduced potency / loss of activity vs. A. baumannii compared to Example 7: MIC ratio vs Example 7
From the text: as §1

[4] = intravenous, 10 mg/kg, read-out: exposure (AUC)
[5] = subcutaneous, side-by-side test Example 3 vs Example 24
[6] = another test, side-by-side Example 3 vs Example 25
[7] = intravenous, dose not given, Example 1 vs Example 10, read-out: AUC

Cl.NC[C@H]1OB2O[C@H](CO)COc3cccc1c32 [Example 3, ((2S,8R)-2-(Aminomethyl)-7,8-dihydro-2H-1,6,9-trioxa-9a-borabenzo[cd]azulen-8-yl)methanol hydrochloride]
improved activity against P. aeruginosa as compared to reference compound of Example 24 (P. aeruginosa [1]; MIC ratio vs Example 24): 2 fold
MIC (P. aeruginosa [1]): 2 to 4 µg/mL
AUC [2, 4]: ~14100 ng·h/mL
improvement in exposure (AUC) over reference compound of Example 24 ([2]; intravenous, 10 mg/kg): 2.7 fold
improvement in exposure (AUC) over reference compound of Example 25 ([2]; intravenous, 10 mg/kg): over 2 fold
higher degree of pathogen reduction compared to reference compound of Example 24 (P. aeruginosa [3]; 30 mg/kg both agents): over 80 fold
more efficient in thigh infection model compared to reference compound of Example 25 (P. aeruginosa [3]; 30 mg/kg both agents): about 12 fold
reduction in the bacterial colony-forming units (CFU) (P. aeruginosa [3]; [5]): about 3.6 log
reduction in the bacterial colony-forming units (CFU), fold (P. aeruginosa [3]; [5]): about 3981 fold
reduction in the bacterial colony-forming units (CFU) (P. aeruginosa [3]; [6]): about 3.44 log
reduction in the bacterial colony-forming units (CFU), fold (P. aeruginosa [3]; [6]): about 2754 fold
improved activity against K. pneumoniae as compared to reference compound of Example 24 (K. pneumoniae; MIC ratio vs Example 24): 2 fold
improved activity against E. coli as compared to reference compound of Example 24 (E. coli): 2 fold

Cl.NC[C@H]1OB(O)c2c(OCCCO)cccc21 [compound 25, (S)-3-(Aminomethyl)-7-(3-hydroxypropoxy)benzo[c][1,2]oxaborol-1(3H)-ol hydrochloride, reference compound]
antibacterial activity (potency) in words (Gram-negative pathogens): active
AUC ([2]; iv, 10 mg/kg): ~6240 ng·h/mL
reduction in the bacterial colony-forming units (CFU) (P. aeruginosa [3]; [6]): about 2.37 log
reduction in the bacterial colony-forming units (CFU), fold (P. aeruginosa [3]; [6]): about 234 fold

Cl.NCC1OB(O)c2c(OCC[C@H](O)CO)cccc21 (stereo partly drawn) [compound 22, (2S)-4-((3-(Aminomethyl)-1-hydroxy-1,3-dihydrobenzo[c][1,2]oxaborol-7-yl)oxy)butane-1,2-diol hydrochloride]
antibacterial activity (potency) in words (Gram-negative pathogens): essentially inactive

Cl.NCC1OB(O)c2c(OCCCO)cccc21 (stereo not drawn) [Reference Example 10, 3-(Aminomethyl)-7-(3-hydroxypropoxy)benzo[c][1,2]oxaborol-1(3H)-ol hydrochloride, reference compound]
MIC (P. aeruginosa [1]): 8 µg/mL
AUC [2, 7]: ~5370 ng·h/mL
CFU reduction (P. aeruginosa [3]): about 1.3 log
CFU reduction, fold (P. aeruginosa [3]): about 20 fold

Cl.NCC1OB2OCCOc3cccc1c32 (stereo not drawn) [compound 24, (7,8-Dihydro-2H-1,6,9-trioxa-9a-borabenzo[cd]azulen-2-yl)methanamine hydrochloride, reference compound]
AUC [2, 4]: ~5300 ng·h/mL
reduction in the bacterial colony-forming units (CFU) (P. aeruginosa [3]; [5]): about 1.7 log
reduction in the bacterial colony-forming units (CFU), fold (P. aeruginosa [3]; [5]): about 50 fold

Cl.NCC1OB2OC(CCO)COc3cccc1c32 (stereo not drawn) [Example 12, 2-(2-(Aminomethyl)-7,8-dihydro-2H-1,6,9-trioxa-9a-borabenzo[cd]azulen-8-yl)ethanol hydrochloride]
reduced potency / loss of activity vs. P. aeruginosa compared to Example 7 (P. aeruginosa [1]): 4 fold
activity vs. A. baumannii in words (A. baumannii; compared to Example 7): total loss of activity

Cl.NCC1OB(O)c2c(OCC(CO)CO)cccc21 (stereo not drawn) [compound 23, 2-(((3-(Aminomethyl)-1-hydroxy-1,3-dihydrobenzo[c][1,2]oxaborol-7-yl)oxy)methyl)propane-1,3-diol hydrochloride]
antibacterial activity (potency) in words (Gram-negative pathogens): essentially inactive

Cl.NCC1OB2O[C@@H](CO)COc3cccc1c32 (stereo partly drawn) [Example 4, ((8S)-2-(Aminomethyl)-7,8-dihydro-2H-1,6,9-trioxa-9a-borabenzo[cd]azulen-8-yl)methanol hydrochloride]
MIC (P. aeruginosa [1]): 2 to 4 µg/mL
MIC (A. baumannii): 4000 µg/mL
MIC (K. pneumoniae): 2000 µg/mL

CC1(CO)COc2cccc3c2B(OC3CN)O1.Cl (stereo not drawn) [Example 13, (2-(Aminomethyl)-8-methyl-7,8-dihydro-2H-1,6,9-trioxa-9a-borabenzo[cd]azulen-8-yl)methanol hydrochloride]
reduced potency / loss of activity vs. A. baumannii compared to Example 7 (A. baumannii): about 4 fold

Cl.NCC1OB2OCC(CO)Oc3cccc1c32 (stereo not drawn) [Example 11, (2-(Aminomethyl)-7,8-dihydro-2H-1,6,9-trioxa-9a-borabenzo[cd]azulen-7-yl)methanol hydrochloride]
reduced potency / loss of activity vs. P. aeruginosa compared to Example 7 (P. aeruginosa [1]): 4 fold
reduced potency / loss of activity vs. A. baumannii compared to Example 7 (A. baumannii): 4 fold

CC(O)C1COc2cccc3c2B(OC3CN)O1.Cl (stereo not drawn) [Example 14, 1-(2-(Aminomethyl)-7,8-dihydro-2H-1,6,9-trioxa-9a-borabenzo[cd]azulen-8-yl)ethanol hydrochloride]
reduced potency / loss of activity vs. A. baumannii compared to Example 7 (A. baumannii): about 4 fold

Cl.NC[C@H]1OB2O[C@H](CO)COc3c(F)ccc1c32 [Example 18, ((2S,8R)-2-(Aminomethyl)-5-fluoro-7,8-dihydro-2H-1,6,9-trioxa-9a-borabenzo[cd]azulen-8-yl)methanol hydrochloride]
antibacterial activity (potency) in words (Gram-negative pathogens): reduced activity

Cl.NCC1OB2OC(CO)COc3cccc1c32 (stereo not drawn) [Example 7]
MIC (P. aeruginosa [1]): 2 to 4 µg/mL
MIC (A. baumannii): 4000 µg/mL
MIC (K. pneumoniae): 4000 µg/mL

Cl.NCC1OB2O[C@H](CO)COc3cccc1c32 (stereo partly drawn) [Example 1, ((8R)-2-(Aminomethyl)-7,8-dihydro-2H-1,6,9-trioxa-9a-borabenzo[cd]azulen-8-yl)methanol hydrochloride]
MIC (P. aeruginosa [1]): 2 to 4 µg/mL
AUC [2, 7]: ~11500 ng·h/mL
improvement in exposure (AUC) over reference compound of Example 10 ([2]; intravenous): more than 2 fold
superiority in the bacterial reduction over Example 10 (P. aeruginosa [3]; side-by-side test): 79 fold
CFU reduction (P. aeruginosa [3]): about 3.2 log
CFU reduction, fold (P. aeruginosa [3]): about 1584 fold
